From patent US20160145242A1, “PHENYLIMIDAZOLE DERIVATIVE, AND THERAPEUTIC MEDICINE OR PREVENTIVE MEDICINE FOR INFLAMMATORY DISEASE, ETC” (NIPPON SODA CO., LTD., priority 2013, published 2016)

Test system: mouse model of retinal light disorders
Assay: Retinal light disorder model test (ONL thickness)
Format: in vivo
Conditions: BALB/cCr male mouse, 30 mg/kg oral 30 minutes before 2 hours white light, eyes taken after 4 days
Experimental: (Retinal Light Disorder Model Test)
The usefulness (improvement rate with respect to retinal light disorders) of the compound of the invention was evaluated using a mouse model of retinal light disorders, generally used as a model of retinal light disorders, (Investigative Ophthalmology & Visual Science, 2002; vol. 43; pp. 1162 to 1167). Here, the improvement rate with respect to the retinal light disorders was calculated based on the thickness of an outer nuclear layer (hereinafter, referred to as “ONL”), which is strongly interfered especially by light application among a retinal cell layers, in a tissue specimen of a perpendicular surface of an eyeball.
Moreover, in the present test, the ONL of a light application group to which only a base was administered was degraded to 30% to 50% of a normal light group.
A test compound was dissolved or suspended in a solvent (1% (w/v) methyl cellulose aqueous solution) and then an administration liquid was prepared so that the test compound to be 30 mg/kg body weight. The dose was set to 10 ml/kg body weight.
A 5-week-old BALB/cCr-based male mouse (weight of approximately 20 g) was bred in a dark place for 48 hours. Subsequently, the test compound administration liquid was orally administered (30 mg/kg). After 30 minutes, […] of white light was continuously applied to the mouse for 2 hours. Next, the mouse was bred in a breeding room with 50 lux of light for 4 days.
An anesthetic (secobarbital sodium) was intraperitoneally administered to anesthetize the mouse and then the mouse was exsanguinated to die. The top portion of the right eyeball was marked with a thread and the eyeball was extracted. […]
The ONL thickness in the tissue specimen was measured for every 200 μm between the optic nerve papilla to where upwardly spaced by 1 mm from the optic nerve papilla using Lumina Vision. The area (AUC) from the optic nerve papilla to where upwardly spaced by 1 mm from the optic papilla in the graph was calculated as an ONL area. […]

Row | Compound | ONL thickness improvement rate [%]
1 | CC(=O)N1CCN(c2ccc([N+](=O)[O-])c(-n3ccnc3)c2)CC1 [2-imidazole-1-yl-4-(acetylpiperazine-1-yl)nitrobenzene, reference compound] | 29.2
2 | CC(=O)NC1CCN(c2ccc(N)c(-n3ccnc3)c2)C1 (centres unmarked) [Compound 3-1, 3-acetylamino-1-(4-amino-3-imidazole-1-yl-phenyl)pyrrolidine] | 87.2
